Test results: patent US6262123A, “Ortho-substituted benzoylguanidines, process for their preparation, their use as a medicament or diagnostic, and medicament comprising them” (Aventis Pharma Deutschland GmbH, priority 1996, dated 2001)
Structures can show the parent of a compound that is named as a salt.

The compounds below were run against T1, rabbit erythrocyte Na^+ /H^+ exchanger (Oryctolagus cuniculus, UniProt P23791) (assay: Inhibition of the rabbit erythrocyte Na^+ /H^+ exchanger (amiloride-sensitive Na^+ influx, flame photometry)). Conditions: erythrocytes of cholesterol-fed rabbits; pH 7.4, 37° C., hyperosmolar salt/sucrose medium.
T1 construct: determine the Na^+ influx into the erythrocytes by way of Na^+ /H^+ exchange; endogenous in cells; host or cells: erythrocytes in whole blood of cholesterol-fed New Zealand White rabbits
Assay type: cell-based, New Zealand White rabbits
From the text: Inhibition of the rabbit erythrocyte Na^+ /H^+ exchanger New Zealand White rabbits (Ivanovas) were given a standard diet containing 2% cholesterol for six weeks in order to activate the Na^+ /H^+ exchange and thereby render it possible to use flame photometry to determine the Na^+ influx into the erythrocytes by way of Na^+ /H^+ exchange. The blood was withdrawn from the aural arteries and rendered incoagulable by adding 25 IU of potassium heparin. One part of each sample was used for determining the hematocrit in duplicate by means of centrifugation. Aliquots of in each case 100 μl were used for measuring the initial Na^+ content of the erythrocytes.
In order to determine the amiloride-sensitive sodium influx, 100 μl of each blood sample were in each case incubated, at pH 7.4 and 37° C., in 5 ml of a hyperosmolar salt/sucrose medium (mmol/l: 140 NaCl, 3 KCl, 150 sucrose, 0.1 ouabain, 20 tris(hydroxymethyl)aminomethane). After that, the erythrocytes were washed three times with an ice-cold solution of MgCl2 /ouabain (mmol/l: 112 MgCl2, 0.1 ouabain) and hemolyzed in 2.0 ml of distilled water. The intracellular sodium content was determined by flame photometry.
The net influx of Na^+ was calculated from the difference between the initial sodium values and the sodium content of the erythrocytes after incubation. The amiloride-inhibitable sodium influx was obtained from the difference in the sodium content of the erythrocytes after incubating with and without 3×10^-4 mol/l amiloride. The same procedure was adopted in the case of the novel compounds.

T1 sequence (P23791 whole entry): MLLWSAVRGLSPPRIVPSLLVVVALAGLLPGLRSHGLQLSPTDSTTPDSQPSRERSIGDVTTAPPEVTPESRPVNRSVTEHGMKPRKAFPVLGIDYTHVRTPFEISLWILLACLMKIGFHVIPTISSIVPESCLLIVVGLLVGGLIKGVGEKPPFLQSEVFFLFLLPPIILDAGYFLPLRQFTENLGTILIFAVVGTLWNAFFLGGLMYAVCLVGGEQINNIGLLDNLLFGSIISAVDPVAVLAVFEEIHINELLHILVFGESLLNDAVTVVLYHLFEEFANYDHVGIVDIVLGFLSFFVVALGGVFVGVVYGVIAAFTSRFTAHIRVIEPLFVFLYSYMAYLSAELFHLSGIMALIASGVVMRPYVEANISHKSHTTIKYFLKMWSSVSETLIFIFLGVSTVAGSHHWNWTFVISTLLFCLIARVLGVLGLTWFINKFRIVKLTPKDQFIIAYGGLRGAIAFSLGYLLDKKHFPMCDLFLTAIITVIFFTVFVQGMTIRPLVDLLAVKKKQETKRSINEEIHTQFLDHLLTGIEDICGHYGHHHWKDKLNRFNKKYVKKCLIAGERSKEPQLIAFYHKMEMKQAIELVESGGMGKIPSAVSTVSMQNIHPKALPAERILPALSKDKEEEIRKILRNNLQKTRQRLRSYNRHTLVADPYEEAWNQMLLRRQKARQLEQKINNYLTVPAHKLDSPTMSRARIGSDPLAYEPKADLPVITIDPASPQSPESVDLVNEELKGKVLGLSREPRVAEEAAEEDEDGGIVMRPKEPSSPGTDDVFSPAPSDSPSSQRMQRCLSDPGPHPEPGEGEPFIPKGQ

IC50 [nM] | Structure (SMILES)
140 | NC(N)=NC(=O)c1cc(C(F)(F)F)c(O)cc1Cl [Example 4, 2-Chloro4-hydroxy-5-trifluoromethylbenzoylguanidine hydrochloride]
240 | NC(N)=NC(=O)c1cc(I)c(O)cc1Cl [Example 2, 2-Chloro-4-hydroxy-5-iodobenzoylguanidine hydrochloride]
100 | NC(N)=NC(=O)c1cc(I)c(O)c(I)c1Cl [Example 3, 2-Chloro4-hydroxy-3,5-diiodobenzoylguanidine hydrochloride]
4000 | NC(N)=NC(=O)c1ccc(O)cc1Cl [Example 1, 2-Chloro4-hydroxybenzoylguanidine hydrochloride]
